Data on seven compounds can be found in paper PMC5478869, “New Hydroxycinnamic Acid Esters as Novel 5-Lipoxygenase Inhibitors That Affect Leukotriene Biosynthesis” (Mediators of Inflammation, 2017).

The structures appear in SMILES notation.

For this assay, the target named is T1, 5-LO (Homo sapiens, UniProt P09917).
T1 sequence (P09917 1-674): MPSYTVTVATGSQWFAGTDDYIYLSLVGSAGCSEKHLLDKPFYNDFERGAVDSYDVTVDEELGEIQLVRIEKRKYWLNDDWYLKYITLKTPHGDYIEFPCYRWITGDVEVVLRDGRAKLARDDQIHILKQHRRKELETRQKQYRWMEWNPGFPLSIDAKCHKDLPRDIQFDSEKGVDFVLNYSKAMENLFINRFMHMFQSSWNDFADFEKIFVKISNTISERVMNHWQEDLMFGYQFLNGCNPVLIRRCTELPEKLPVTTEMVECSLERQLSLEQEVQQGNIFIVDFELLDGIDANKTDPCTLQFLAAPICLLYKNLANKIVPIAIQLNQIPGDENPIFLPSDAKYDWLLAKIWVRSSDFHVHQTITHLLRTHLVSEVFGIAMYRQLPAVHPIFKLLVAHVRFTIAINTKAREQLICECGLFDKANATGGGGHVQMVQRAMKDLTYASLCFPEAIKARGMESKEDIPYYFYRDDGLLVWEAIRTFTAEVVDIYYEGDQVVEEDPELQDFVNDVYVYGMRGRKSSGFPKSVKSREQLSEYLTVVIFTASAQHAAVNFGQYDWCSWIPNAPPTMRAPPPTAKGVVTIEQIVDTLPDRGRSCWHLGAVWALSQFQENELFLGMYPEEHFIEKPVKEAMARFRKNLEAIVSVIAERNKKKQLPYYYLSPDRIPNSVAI
The assay can be described thus: Biosynthesis of 5-LO products by thapsigargin-stimulated PMNL. The format is cell-based. Also noted: endogenous in cells; host or cells: human polymorphonuclear leukocytes (PMNL) isolated from whole blood. As to conditions: freshly isolated human PMNL, 5 min preincubation, 1 μM thapsigargin 15 min; 95% CI in brackets; read-out: IC50 (95% CI) for the inhibition of 5-LO product biosynthesis in human PMNL. How it is done:
Polymorphonuclear leukocytes (PMNL) were isolated as previously described. Briefly, whole blood was collected (with anticoagulant citrate dextrose (ACD)) and then centrifuged at 500 g for 10 min. Platelet-rich plasma (PRP) was set aside for platelet isolation (see below), and erythrocytes were removed by dextran sedimentation. After a centrifugation step at 900 g × 20 min at room temperature on a lymphocyte separation medium cushion (density, 1.077 g/ml) (Wisent), PMNL were obtained (>96%) followed by hypotonic lysis of the remaining erythrocytes. PMNL were counted and resuspended at 10^7 cells/ml in HBSS supplemented with 1.6 mM CaCl2. PRP was processed as previously described for platelet isolation. Briefly, PRP was centrifuged at 400 g for 2 min at room temperature to remove the remaining erythrocytes. The supernatant was then centrifuged at 1300g for 10 min to pellet platelets. Cells were resuspended in Tyrode Buffer pH 7.4 (134 mM NaCl, 2.9 mM KCl, 0.34 mM Na2HPO4, 12 mM NaHCO3, 20 mM HEPES, 1 mM MgCl2, 5 mM glucose, and 0.5 mg/ml BSA) at 3 × 10^8 cells/ml in the presence of 5 mM CaCl2.
Suspended PMNL (10^7 cells/ml) were incubated at 37°C with adenosine deaminase (0.3 U/ml, Sigma-Aldrich) and test compounds at indicated concentrations 5 min before stimulation. To initiate stimulation, 1 μM of thapsigargin (Sigma-Aldrich) was added to cells which were then incubated for 15 min at 37°C [31]. Two volumes of MeOH:MeCN (1 : 1) containing the internal standard PGB2 (100 ng/ml) was then added, and samples were processed for RP-HPLC analysis as described above.
Statistical analysis and graph design were performed with GraphPad Prism 5 software (GraphPad Software, San Diego, California). IC50 values were calculated from a sigmoidal concentration-response curve-fitting model and are expressed as means with 95% confidence intervals. All other data are expressed as mean ± SEM. One-way ANOVA with Dunnett's multiple comparison test (p < 0.05) were performed to determine significant difference from controls.
Figure 2 Effect of the test compounds on the biosynthesis of 5-LO products in transfected HEK293 cells (a) and thapsigargin-stimulated PMNL (b). (a) HEK293 cells expressing both 5-LO and FLAP were incubated in presence of the indicated compounds (1 μM) or their diluent (control, 0.5% DMSO) for 5 min, then biosynthesis of 5-LO products was initiated with the addition of 10 μM calcium ionophore A23187 and 10 μM arachidonic acid for 15 min. After stimulation, reactions were stopped and samples were processed for analysis of 5-LO products by RP-HPLC. Total 5-LO products measured represent the sum of LTB4, its trans isomers, and 5-hydroxyeicosatetraenoic acid. (b) Freshly isolated human PMNL were incubated in presence of test compounds (or their diluent control, DMSO 0.5%) at the indicated concentrations for 5 min. Biosynthesis of the 5-LO products was initiated with the addition of 1 μM of thapsigargin, followed by a 15 min incubation period at 37°C. The stimulation was then stopped and samples were processed for RP-HPLC analysis and total 5-LO products quantification. Total 5-LO products measured represent the sum of LTB4, its trans isomers, 20-COOH- and 20-OH-LTB4 and 5-hydroxyeicosatetraenoic acid. Data are expressed as means ± SEM of at least 3 independent experiments. ^∗Different from control, as determined by one-way ANOVA with Dunnett's multiple comparison test (p < 0.05).
Consider `O=C(/C=C/c1ccc(O)c(O)c1)OCCc1ccccc1` [CAPE (2), Caffeic acid phenethyl ester, reference compound], for which the IC50 amounted to 790 nM.
The result for `C=C(C)CCOC(=O)/C=C/c1ccc(O)c(O)c1` [Compound 9] reads 870 nM; that for `O=C(/C=C/c1ccc(O)c(O)c1)OCCCc1ccccc1` [Compound 13], 490 nM.
For `O=C(/C=C/c1ccc(O)c(O)c1)OCCc1ccc(F)cc1` [Compound 14], the IC50 is 1010 nM.
The result for `Cc1ccc(CCOC(=O)/C=C/c2ccc(O)c(O)c2)cc1` [Compound 15] reads 1040 nM; that for `COc1ccc(CCOC(=O)/C=C/c2ccc(O)c(O)c2)cc1` [Compound 16], 1290 nM.
Next, `O=C(/C=C/c1ccc(O)c(O)c1)OCC(c1ccccc1)c1ccccc1` [Compound 19]: 530 nM.

A word on the IC50: it is the concentration at which inhibition is half-maximal.
